Each compound was assayed against T1, APOL1 G1 Protein (Homo sapiens, UniProt O14791, I384M/S342G) (assay: Trypanosoma brucei brucei lysis assay using APOL1 recombinant protein (AlamarBlue viability readout)). Conditions: Trypanosoma brucei brucei (Lister 427 VSG 221 bloodstream form) lysis by 0.05 μg/mL recombinant APOL1 G1, 16 hrs.
T1 sequence (O14791 28-398 S342G/I384M): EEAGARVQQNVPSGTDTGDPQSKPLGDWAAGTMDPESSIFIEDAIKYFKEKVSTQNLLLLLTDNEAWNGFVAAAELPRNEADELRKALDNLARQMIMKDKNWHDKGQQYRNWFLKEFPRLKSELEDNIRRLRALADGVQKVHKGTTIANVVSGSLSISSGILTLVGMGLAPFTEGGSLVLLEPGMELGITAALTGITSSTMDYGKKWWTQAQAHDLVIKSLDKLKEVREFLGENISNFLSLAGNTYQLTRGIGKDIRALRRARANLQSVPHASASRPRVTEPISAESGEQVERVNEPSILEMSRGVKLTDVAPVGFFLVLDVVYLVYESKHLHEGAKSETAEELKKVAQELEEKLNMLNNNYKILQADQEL
Assay type: cell-based
From the text: Trypanosoma brucei brucei is a blood stream parasite to which human, gorillas and baboon are immune due to the presence of the APOL1 protein in their HDL particles. The protein is uptaken by the parasite via the TbHpHb receptor located in its flagellar pocket and is bonded by the Hpr protein contained in the HDL particles which triggers the receptor endocytosis by the parasite.
Following endocytosis, the formed vesicle containing the HDL particle matures from early to late endosome, and subsequently to lysosome. The concomitant pH change in the lumen of the vesicle triggers the insertion of the APOL1 protein into the membrane of the late endosome/lysosome and hereby triggers lysosomal membrane premeabilisation and as a further downstream event, trypanosome lysis. Trypanosoma brucei brucei is sensitive to lysis by all three APOL1 variants (G0, G1, and G2).
The Trypanosoma brucei brucei lysis assay is a lysis assay of the parasite using recombinant APOL1 protein variant followed by a fluorescent detection method of viability by the addition of AlamarBlue reagent to the assay well, a general metabolic redox indicator (AlamarBlue assay).
Briefly, the AlamarBlue active compound, the resazurin, a blue, water soluble, non-toxic and cell permeable molecule, which can be followed by absorbance, is reduced by various metabolic pathways into resorufin, a red compound which can be followed by either absorbance or fluorescence. The assay allows the calculation of the percent viability (percent of living Trypanosomes remaining in each well) at the end of a lysis relative to the untreated condition by interpolation of fluorescent values (FLU) on a standard curve with a known amount of seeded trypanosome/well.
Trypanosoma brucei brucei (ATCC, Cat. No. PRA-382) • Lister 427 VSG 221 bloodstream form.
Thaw/Expansion Media (ATCC Medium 2834 Modified HMI-9 Medium)
Equipment • E1-Clip Tip pipette 12 channel adjustable 2-125 μL, Cat. No. 4672070BT • ThermoFisher MultiDrop 384, Cat. No. 5840300 • Multidrop • Agilent Bravo, Cat. No. G5409A • Bravo • SpectraMax M5
Trypanosoma brucei brucei Culture
Step 2, Day 4 • Centrifuge at 800×g for 5 minutes at room temperature. • Resuspend in 1 mL media. • Make a 1:25 fold dilution (10 μL/240 μL media). • Count on a hemocytometer (after adding parasites). • Let sit for 1-2 minutes for the parasites to settle. • Count should be approximately 100 viable motile parasites/16 grid or approximately 25×10^6 parasites/flask. • Passage the parasites by adding 1×10^6 parasites/T75 flask in 20 mL media. • Passage the parasites by adding 2.33×10^6 parasites/T175 flask in 46.6 mL media. • For every T75 flask should make enough for approximately 1.5×384 well assay plates. • For every T175 flask should make enough for approximately 3.8×384 well assay plates.
Step 3. Day 6 • Centrifuge at 800×g for 5 minutes. • Resuspend in 3 mL assay media (No phenol red, no FBS) per 75 starting flask. • Resuspend in 7 mL assay media (No phenol red, no FBS) per 175 flask • Make a 1:25 fold dilution. • Count by hemocytometer. • Every T75 flask set up should have approximately 75×10^6 parasites/flask (verify doubling time=8.7 hrs 1 hr). • Every T175 flask set up should have approximately 175×10^6 parasites/flask (verify doubling time=8.7 hrs±1 hr). • Require 46×10^6 parasites per 384 well plate (at 120,000 parasites per well).
Step 2, Day 2 • Centrifuge at 800×g for 5 minutes at room temperature. • Resuspend in 1 mL media. • Make a 1:25 fold dilution (10 L/240 μL media). • Let sit for 1-2 minutes for the parasites to settle. • Count should be approximately 100 viable motile parasites/16 grid or approximately 8×10^6 parasites per flask. • Passage the parasites by adding 1.25×10^6 parasites per T75 flask in 20 mL media. • For every T75 flask set up should have approximately 1.5×384 well assay plates. • For every T175 flask setup should have approximately 3.8×384 well assay plates. […]
Work on `O=C(CCc1c(-c2ccc(F)cc2)[nH]c2c(F)cc(F)cc12)N[C@@H]1C(=O)NC[C@@H]1O` [Compound 1, 3-[5,7-difluoro-2-(4-fluorophenyl)-1H-indol-3-yl]-N-[(3S,4S)-4-hydroxy-2-oxo-pyrrolidin-3-yl]propanamide] yielded an IC50 of less than 250 nM.
Compound `[2H]C([2H])(C(=O)N[C@@H]1C(=O)NC[C@H]1O)C([2H])([2H])c1c(-c2ccc(F)cc2)[nH]c2c(F)cc(F)cc12` [Compound 88, 2,2,3,3-tetradeutero-3-[5,7-difluoro-2-(4-fluorophenyl)-1H-indol-3-yl]-N-[(3S,4R)-4-hydroxy-2-oxo-pyrrolidin-3-yl]propanamide] has an IC50 of less than 250 nM.
Compound `O=C(CCc1c(-c2ccc(F)cc2)[nH]c2c(F)cc(F)cc12)N[C@@H]1C(=O)NC[C@H]1O` [Compound 2, 3-[5,7-difluoro-2-(4-fluorophenyl)-1H-indol-3-yl]-N-[(3S,4R)-4-hydroxy-2-oxo-pyrrolidin-3-yl]propanamide] has an IC50 of less than 250 nM.
Compound `[2H]C(C(=O)N[C@@H]1C(=O)NC[C@H]1O)C([2H])c1c(-c2ccc(F)cc2)[nH]c2c(F)cc(F)cc12` (stereo partly drawn) [Compound 89, 2,3-dideuterio-3-[5,7-difluoro-2-(4-fluorophenyl)-1H-indol-3-yl]-N-[(3S,4R)-4-hydroxy-2-oxo-pyrrolidin-3-yl]propanamide] has an IC50 of less than 250 nM.

— US11618746B2, “Inhibitors of APOL1 and methods of using same” (Vertex Pharmaceuticals Incorporated, priority 2018, dated 2023)
